Reference: paper PMC5554220, “A Novel Aldosterone Antagonist Limits Renal Injury in 5/6 Nephrectomy” (Scientific Reports, 2017)

Key:
Nx rats = assay: Preliminary experiments to determine the doses of Eple and Ly; assay type: in vivo
Protocol: Preliminary experiments were performed to exclude the possibility that any differences between Eple and Ly, both in monotherapy and as add-ons to L, were simply due to the use of inadequately low doses of either compound. In the first set of experiments, Nx rats received Eple at the recommended dose of 85 mg/kg, and at 150 mg/kg, higher than in most studies reported so far. […] Other Nx rats received Ly at either 12 mg/kg (the recommended dose) or 20 mg/kg. […] Based on these preliminary results, we set the doses of Eple and Ly at 150 mg/kg and 20 mg/kg, respectively.

[1] = system: rats with 5/6 renal ablation (Nx); assay: Protocol 2 (late treatment), 5/6 renal ablation (Nx); assay type: in vivo, male Munich-Wistar rats
Excerpt: (§1) One-hundred forty-five adult male Munich-Wistar rats, obtained from a local facility at the Faculty of Medicine, University of São Paulo, weighing between 220 and 250 g, were used in this study. All experimental procedures were approved by the local Research Ethics Committee (Comissão de Ética para Análise de Projetos de Pesquisa do Hospital das Clínicas da Faculdade de Medicina da Universidade de São Paulo, CAPPesq, process n° 0905/09), and carried out following strictly our institutional guidelines and current international standards for manipulation and care of laboratory animals. Body weights and general conditions were assessed daily. Five-sixths renal ablation (Nx) was performed as a single-step procedure under anesthesia with ketamine 50 mg/kg and xylazine 10 mg/kg im. After ventral laparotomy, the right kidney was excised and two or three branches of the left renal artery were ligated, so as to promote infarction of two-thirds of the left kidney. The operation was invariably well tolerated. Sham-operated rats underwent anesthesia and manipulation of the renal pedicles without removal of renal mass. After surgery, rats received enrofloxacin and, upon recovery, had free access to tap water and regular rodent chow containing 0.5 Na and 22% protein (Nuvital Labs, Curitiba, Brazil), and were kept at 23 ± 1 °C and 60 ± 5% relative air humidity, under an artificial 12–12 hour light/dark cycle. Rats were then treated following two different experimental protocols (described later).
In Protocol 2, adult male Munich-Wistar rats were subjected to Nx as described earlier, and left untreated for two months. At this time, TCP and UalbV were assessed as described earlier. Rats with TCP ≤ 170 mmHg or UalbV ≤ 40 mg/day were excluded from the study. The remaining […] Nx rats were divided into four experimental groups: Nx + V (N = 14), untreated Nx rats; Nx + L (N = 15), receiving oral L, 50 mg/kg in drinking water; Nx + L + Eple (N = 14), receiving L and Eple (N = 14), 150 mg/kg/day; and Nx + L + Ly (N = 14), receiving L and Ly (20 mg/kg/day) as described before. A group of S rats (N = 16) was also included. All groups were followed for 90 days after treatments were started (150 days after nephrectomy), with monthly measurement of TCP and UalbV. At the end of this period, rats were anesthetized, blood was collected, and the renal tissue was perfusion-fixed and prepared for histomorphometric and immunohistochemical examination in the same manner as for Protocol 1.
(§2) Histomorphometric analysis was performed blindly by two independent observers. The extent of glomerular injury was estimated, in PAS-stained sections, by determining the percentage of glomeruli with sclerotic lesions. The fraction of the renal cortical area occupied by interstitial tissue (%INT) was estimated in 25 consecutive microscopic fields of Masson-stained sections by a point-counting technique, at a final magnification of 200X, under a 144-point grid.
Immunohistochemistry was performed on 4-μm-thick sections, mounted on glass slides precoated with 2% silane. Sections were deparaffinized and rehydrated by conventional techniques, then heated in citrate buffer for antigen retrieval and incubated overnight with the primary antibody at 4 °C (no antibody in negative control experiments). Primary antibodies used were: monoclonal mouse anti-rat ED-1 (Serotec, Oxford, UK); polyclonal rabbit anti-human AngII (Peninsula Laboratories, San Carlos, CA); and polyclonal rabbit anti-collagen I (Abcam, Cambridge, UK).
For ED-1 detection, sections were preincubated with 5% normal rabbit serum to prevent nonspecific binding, then incubated overnight at 4 °C with the primary antibody diluted in BSA at 1%. […]

[2] = system: rats with 5/6 renal ablation (Nx); assay: Protocol 1 (early treatment), 5/6 renal ablation (Nx); assay type: in vivo, male Munich-Wistar rats
Excerpt: as §1
In this first protocol, Nx rats were divided into groups: NX + V (N = 8), receiving vehicle; NX + Eple (N = 8), receiving oral (mixed with the chow) Eple, 150 mg/kg/day; and Nx + Ly (N = 8), receiving oral Ly, 20 mg/kg/day. A group of sham-operated rats (S, N = 7) was also studied. Treatments were started 24 h after surgery. Rats were followed during 60 days, with determination of TCP and UalbV on Days 30 and 60. TCP was assessed with an optoelectronic automated device (Visitech Systems, Apex, NC), after rats had been preconditioned so as to remain calm during the procedure. UalbV was measured with a conventional immunodiffusion technique. On Day 60, rats were anesthetized as described before, and blood was collected from the abdominal aorta for determination of serum creatinine, serum K^+, PRA and PAC. The remnant kidney was then perfusion-fixed with Duboscq-Brazil solution after a brief washout with saline to remove blood from renal vessels, and prepared for histomorphometric and immunohistochemical analyses using conventional sequential techniques.
as §2
PRA and PAC were determined using commercially available radioimmunoassay kits (Renin Active IRMA and Aldosterone Active RIA, Beckman Coulter, Carlsbad, CA).

[3] = biological target: T1, human glucocorticoid receptor (hGR) (Homo sapiens, UniProt P04150); assay: Radioligand binding, hGR expressed in HEK293 cells; conditions: hGR expressed in HEK293 cells; read-out: Mean Ki ± SEM hGR*
T1 construct: expressed in transfected cells; host or cells: HEK293 cells
T1 sequence (P04150 1-777): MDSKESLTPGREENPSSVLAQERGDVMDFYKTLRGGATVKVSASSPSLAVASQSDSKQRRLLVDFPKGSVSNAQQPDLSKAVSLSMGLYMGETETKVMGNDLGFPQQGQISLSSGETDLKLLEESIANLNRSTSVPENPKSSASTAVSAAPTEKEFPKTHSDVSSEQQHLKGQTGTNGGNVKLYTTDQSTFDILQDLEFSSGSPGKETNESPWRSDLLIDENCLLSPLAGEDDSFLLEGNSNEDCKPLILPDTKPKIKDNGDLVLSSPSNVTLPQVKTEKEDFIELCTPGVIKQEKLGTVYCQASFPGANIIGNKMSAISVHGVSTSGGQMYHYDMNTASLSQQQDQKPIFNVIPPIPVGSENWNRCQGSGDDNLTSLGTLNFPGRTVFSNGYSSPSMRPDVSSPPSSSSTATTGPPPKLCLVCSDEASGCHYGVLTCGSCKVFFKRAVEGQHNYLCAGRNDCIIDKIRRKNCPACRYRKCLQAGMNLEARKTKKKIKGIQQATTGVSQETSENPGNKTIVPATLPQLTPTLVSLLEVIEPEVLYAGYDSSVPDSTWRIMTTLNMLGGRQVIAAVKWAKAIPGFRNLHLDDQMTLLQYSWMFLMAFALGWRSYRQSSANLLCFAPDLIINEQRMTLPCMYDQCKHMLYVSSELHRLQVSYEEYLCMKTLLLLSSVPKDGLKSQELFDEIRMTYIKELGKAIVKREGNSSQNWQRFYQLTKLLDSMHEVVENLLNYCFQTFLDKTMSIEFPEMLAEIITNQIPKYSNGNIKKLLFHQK
Protocol: Affinity of ligands to the soluble receptor was determined using vacuum filtration methods, preparing soluble receptors in 96-well Falcon polystyrene plates (BD Biosciences, Bedford, MA) in a total volume of 250 μl. The hMR Sf9 lysate (approximately 20–25 μg protein in 20 μl) was incubated in the absence or presence of competing ligands with 10 μl of [1,2,6,7-3H] […] Binding studies for ligands for hPR and hAR were determined using [1,2,6,7-3H(N)] Progesterone (specific activity 103 Ci/mmol, at a final concentration 0.5 nM; NET381, NEN/Perkin Elmer Life Sciences, Boston, MA) and [17α-methyl-3H] Mibolerone, an enzymaticaly stable analog of testosterone (specific activity 76.8 Ci/mmol, final concentration 0.3 nM; NET919, NEN), respectively. Specific binding of 3H-progesterone for hPR and 3H-mibolerone for hAR was determined in the presence and absence of 1 μM mifepristone. Inhibition constants (Ki), were determined either from the Cheng-Prusoff equation[32], or directly using non-linear regression curve fitting to a three-parameter one-site competitive equation. Ki values obtained from individual concentration response curves were reported as the mean ± SEM. Protein was measured using colorimetric detection and quantification of bicinchoninic acid (BCA Protein Assay, Pierce, Rockford, IL). Cos-7L cells were cotransfected with expression vectors and a reporter plasmid responsive to all 3 nuclear hormone receptors. pBluescript II SK (+) (Stratagene, San Diego, CA) was included as a source of carrier DNA. The number of repetitions of full concentration response curves (n) represents values from at least two independent experiments for each condition. Concentration response curves were analyzed statistically using a four-parameter logistic equation (Hill equation for sigmoid curves). Similar methodology was adopted for the human glucocorticoid receptor (hGR) expressed in HEK293 cells.

Compound | Maximal nontoxic dose, defined by stunting of body growth (Nx rats) | Dose-response effect on the parameters studied (Nx rats; Eple 85 mg/kg vs 150 mg/kg) | PRA (Nx rats; Eple 150 mg/kg dose vs 85 mg/kg) | Body growth (Nx rats; Eple, dose higher than 150 mg/kg) | Plasma renin activity (PRA) ([1]; Day 150) | Albumin excretion rate (UalbV) ([2]; 60 days after ablation, Eple 150 mg/kg/day, Ly 20 mg/kg/day oral) | Fractional cortical interstitial area ([2]; Day 60) | Left kidney weight corrected for body weight (renal hypertrophy) ([2]; Day 60) | Plasma aldosterone concentration (PAC) ([2]; Day 60) | Plasma K+ levels ([2]; Day 60, versus Nx + V) | Tail-cuff pressure (TCP) ([2]; Eple 150 mg/kg/day, Ly 20 mg/kg/day oral) | Density of interstitial AngII+ cells ([1]; Day 150) | Interstitial macrophage infiltration ([1]; Day 150) | Percent cortical area occupied by collagen I (interstitial fibrosis) ([1]; Day 150) | Percentage of glomeruli with sclerotic lesions (GS%) ([1]; Day 150) | Plasma aldosterone concentration (PAC) ([1]; Day 150) | Albumin excretion rate (UalbV) ([1]; treatment Day 60-150) | Tail-cuff pressure (TCP) ([1]; treatment Day 60-150, L 50 mg/kg, Eple 150 mg/kg/day, Ly 20 mg/kg/day) | Ki [3]
COC(=O)[C@@H]1CC2=CC(=O)CC[C@]2(C)[C@@]23O[C@@H]2C[C@@]2(C)[C@@H](CC[C@@]24CCC(=O)O4)[C@H]13 [Eplerenone, eplerenone, reference compound] | 150 mg/kg | No dose-response effect was observed | slight increase in PRA | body growth limitation | significantly elevated compared to S, Nx and Nx + L | slightly, but not significantly, attenuated | only slightly attenuated | no effect on renal weight | exacerbated hyperaldosteronemia | not aggravated | partially prevented the elevation of TCP | – | – | – | – | – | – | – | –
CCCCc1nc(Cl)c(CO)n1Cc1ccc(-c2ccccc2-c2nn[nH]n2)cc1 [L, losartan] | – | – | – | – | normalized PRA | – | – | – | – | – | – | not significantly altered | numerically but not significantly reduced | failed to reduce significantly | partly prevented GS | significantly reduced PAC compared to S or Nx + V | prevented the progression of albuminuria | mitigated | –
CC(=O)S[C@@H]1CC2=CC(=O)CC[C@]2(C)[C@H]2CC[C@@]3(C)[C@@H](CC[C@@]34CCC(=O)O4)[C@H]12 [Spironolactone, spironolactone, reference compound] | – | – | – | – | – | – | – | – | – | – | – | – | – | – | – | – | – | – | 33 ± 7 nM
